Test results as given in patent US7135466B2 (Kirin Beer Kabushiki Kaisha, priority 1999, dated 2006).
Like-named read-outs stand apart in the source and are kept apart here.

Assays:
PDGF-Ra = target: T1, PDGF-Ra (Homo sapiens, UniProt P16234); assay: Inhibitory activity against PDGF-Ra phosphorylation by PDGF-AA stimulation using G292; type: cell-based; conditions: for IC50: > means inhibition at indicated concentration not more than 50%, < and << not less than 50%, read-out: PDGF (E) IC50; for inhibition at 0.1 µM: G292, at 100 nM, read-out: PDGF (E) inhibition (%) at 100 nM
T1 construct: host or cells: G-292 human osteosarcoma cells
T1 sequence (P16234 24-1089): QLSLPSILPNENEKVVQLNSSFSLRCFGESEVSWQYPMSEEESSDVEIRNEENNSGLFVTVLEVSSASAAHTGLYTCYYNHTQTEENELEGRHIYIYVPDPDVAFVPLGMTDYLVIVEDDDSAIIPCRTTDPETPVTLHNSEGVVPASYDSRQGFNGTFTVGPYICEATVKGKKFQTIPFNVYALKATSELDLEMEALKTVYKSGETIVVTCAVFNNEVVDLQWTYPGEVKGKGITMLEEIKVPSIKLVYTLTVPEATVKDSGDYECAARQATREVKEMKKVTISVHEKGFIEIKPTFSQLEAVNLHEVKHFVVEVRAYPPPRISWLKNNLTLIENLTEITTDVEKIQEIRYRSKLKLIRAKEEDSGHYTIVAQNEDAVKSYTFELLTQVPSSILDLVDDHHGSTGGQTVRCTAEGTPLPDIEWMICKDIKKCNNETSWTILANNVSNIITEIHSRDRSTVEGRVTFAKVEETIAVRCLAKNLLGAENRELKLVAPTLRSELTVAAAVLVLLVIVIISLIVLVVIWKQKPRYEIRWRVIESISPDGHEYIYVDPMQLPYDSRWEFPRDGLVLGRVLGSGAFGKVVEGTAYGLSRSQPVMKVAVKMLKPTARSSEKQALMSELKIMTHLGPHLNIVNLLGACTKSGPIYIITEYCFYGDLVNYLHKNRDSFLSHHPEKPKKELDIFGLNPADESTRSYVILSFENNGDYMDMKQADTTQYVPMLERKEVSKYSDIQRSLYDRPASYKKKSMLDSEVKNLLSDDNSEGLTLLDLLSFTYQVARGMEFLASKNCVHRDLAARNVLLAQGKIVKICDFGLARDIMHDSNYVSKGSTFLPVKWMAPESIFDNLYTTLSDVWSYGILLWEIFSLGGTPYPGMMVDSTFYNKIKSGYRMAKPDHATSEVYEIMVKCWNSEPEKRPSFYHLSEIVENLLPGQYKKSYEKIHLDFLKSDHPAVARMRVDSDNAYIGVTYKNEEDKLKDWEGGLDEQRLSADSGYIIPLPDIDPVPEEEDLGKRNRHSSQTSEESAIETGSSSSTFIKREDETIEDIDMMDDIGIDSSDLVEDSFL
How it was run: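 Read-out: A450 from a sandwich ELISA (PY-20 capture, anti-PDGF-Ra detection, peroxidase colour) of lysates from G-292 cells given compound for 1 hr at 37 °C before a 5 min challenge with PDGF-AA at 50 ng/ml.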

c-kit = target: T2, c-kit (Homo sapiens, UniProt P10721); assay: Inhibitory activity against c-kit autophosphorylation (MO7e cells, h-SCF); type: cell-based; conditions: for IC50: MO7e cells, read-out: c-kit IC50; for inhibition at 1 µM: Mo7e, at 1000 nM
T2 construct: MO7e (human megakaryocytic leukemia cell line) which had been arrested for 20 hr; endogenous in cells; host or cells: MO7e human megakaryocytic leukemia cell line
T2 sequence (P10721 26-976): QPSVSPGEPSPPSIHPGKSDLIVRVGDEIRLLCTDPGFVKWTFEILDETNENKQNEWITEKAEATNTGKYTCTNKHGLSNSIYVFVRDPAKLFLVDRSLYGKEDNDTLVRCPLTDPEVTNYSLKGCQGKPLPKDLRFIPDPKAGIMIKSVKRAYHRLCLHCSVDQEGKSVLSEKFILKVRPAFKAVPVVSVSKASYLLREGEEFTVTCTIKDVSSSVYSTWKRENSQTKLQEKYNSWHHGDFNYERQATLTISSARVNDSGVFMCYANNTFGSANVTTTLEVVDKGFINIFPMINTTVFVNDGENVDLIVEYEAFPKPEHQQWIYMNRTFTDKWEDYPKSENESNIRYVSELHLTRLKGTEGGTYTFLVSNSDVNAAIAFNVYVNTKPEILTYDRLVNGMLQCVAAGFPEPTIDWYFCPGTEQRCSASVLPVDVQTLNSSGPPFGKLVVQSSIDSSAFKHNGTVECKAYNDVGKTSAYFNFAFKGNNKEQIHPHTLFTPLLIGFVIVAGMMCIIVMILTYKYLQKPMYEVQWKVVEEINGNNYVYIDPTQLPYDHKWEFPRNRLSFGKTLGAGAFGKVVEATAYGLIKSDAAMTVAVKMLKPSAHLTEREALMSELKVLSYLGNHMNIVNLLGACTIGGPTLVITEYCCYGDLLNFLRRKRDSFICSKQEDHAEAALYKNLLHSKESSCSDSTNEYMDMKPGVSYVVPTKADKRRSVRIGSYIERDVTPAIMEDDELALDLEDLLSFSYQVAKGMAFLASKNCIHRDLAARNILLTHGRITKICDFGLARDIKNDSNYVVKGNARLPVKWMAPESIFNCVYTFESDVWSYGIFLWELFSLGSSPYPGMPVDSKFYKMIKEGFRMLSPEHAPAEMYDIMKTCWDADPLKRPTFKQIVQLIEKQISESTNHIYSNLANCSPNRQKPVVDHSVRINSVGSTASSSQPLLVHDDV
How it was run: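 In this cellular autophosphorylation assay, compound-treated MO7e cells (1 hr) were challenged with human stem cell factor at 50 ng/ml for 5 min; detection relied on PY-20 capture and anti-c-kit/HRP immunodetection at 450 nm.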

[1] = figure within parentheses in >100( )
[2] = figure within parentheses in −( ) or >1000( )
[3] = figure in parentheses in >100( )

Structure (SMILES) | IC50 (PDGF-Ra) | IC50 (c-kit; 50 ng/ml h-SCF) | IC50 (PDGF-Ra; Pharmacological Test Example 1) | IC50 (c-kit; h-SCF 50 ng/ml) | also measured
COc1cc2nccc(Oc3cc(C)c(NC(=O)OC4CCOCC4)cc3C)c2cc1OC [Example 471, Tetrahydro-2H-4-pyranyl N-{4-[(6,7-dimethoxy-4-quinolyl)oxy]-2,5-dimethylphenyl}carbamate] | > 100 nM | 237 nM | – | – | inhibition at 0.1 µM (PDGF-Ra; [1]): 28%
COc1cc2nccc(Oc3ccc(NC(=S)NC(=O)C4(C)CC4(Cl)Cl)cc3)c2cc1OC (stereo not drawn) [Example 749, N-[(2,2-Dichloro-1-methylcyclopropyl)carbonyl]-N′-{4-[(6,7-dimethoxy-4-quinolyl)oxy]phenyl}thiourea] | 12 nM | – | – | – | inhibition at 1 µM (c-kit; [2]): 41%
COc1ccccc1COC(=O)Nc1ccc(Oc2ncnc3cc(OC)c(OC)cc23)cc1 [Example 315, 2-Methoxybenzyl N-{4-[(6,7-dimethoxy-4-quinazolinyl)oxy]phenyl}carbamate] | – | – | < 10 nM | 82 nM | –
COc1cc2nccc(Oc3ccc(NC(=O)OCCOc4ccccc4F)c(C)c3C)c2cc1OC [Example 204, 2-(2-Fluorophenoxy)ethyl N-{4-[(6,7-dimethoxy-4-quinolyl)oxy]-2,3-dimethylphenyl}carbamate] | – | – | 28 nM | 79 nM | –
COc1cc(Oc2ccnc3cc(OC)c(OC)cc23)ccc1NC(=O)NCCN(C(C)C)C(C)C [Example 672, N-[2-(Diisopropylamino)ethyl]-N′-{4-[(6,7-dimethoxy-4-quinolyl)oxy]-2-methoxyphenyl}urea] | 53 nM | – | – | – | inhibition at 1 µM (c-kit; [2]): 9%
COc1cc2nccc(Oc3cc(C)c(NC(=O)OC(C)c4cccc(Cl)c4)cc3C)c2cc1OC (stereo not drawn) [Example 5, 1-(3-Chlorophenyl)ethyl N-{4-[(6,7-dimethoxy-4-quinolyl)oxy]-2,5-dimethylphenyl}carbamate] | – | – | 24 nM | 336 nM | –
COc1cc2ncnc(Oc3ccc(NC(=O)NC4CC(C)(C)NC(C)(C)C4)cc3)c2cc1OC [Example 563, N-{4-[(6,7-Dimethoxy-4-quinazolinyl)oxy]phenyl}-N′-(2,2,6,6-tetramethyl-4-piperidyl)urea] | 54 nM | 406 nM | – | – | –
COc1cc2ncnc(Oc3ccc(NC(=O)OCc4ccc(F)cc4)cc3)c2cc1OC [Example 11, 4-Fluorobenzyl N-{4-[(6,7-dimethoxy-4-quinazolinyl)oxy]phenyl}carbamate] | – | – | < 10 nM | 36 nM | –
CCOc1ccccc1C(C)OC(=O)Nc1ccc(Oc2ccnc3cc(OC)c(OC)cc23)cc1 (stereo not drawn) [Example 127, 1-(2-Ethoxyphenyl)ethyl N-{4-[(6,7-dimethoxy-4-quinolyl)oxy]phenyl}carbamate] | – | – | 16 nM | 283 nM | –
CCCC(CCN1CCN(C)CC1)OC(=O)Nc1ccc(Oc2ccnc3cc(OC)c(OC)cc23)c(C)c1C (stereo not drawn) [Example 451, 1-[2-(4-Methylpiperazino)ethyl]butyl N-{4-[(6,7-dimethoxy-4-quinolyl)oxy]-2,3-dimethylphenyl}carbamate] | > 100 nM | 613 nM | – | – | inhibition at 0.1 µM (PDGF-Ra; [1]): 25%
COc1cc2nccc(Oc3ccc(NC(=O)OCC4CCCCC4)c(C)c3C)c2cc1OC [Example 285, Cyclohexylmethyl N-{4-[(6,7-dimethoxy-4-quinolyl)oxy]-2,3-dimethylphenyl}carbamate] | – | – | < 10 nM | 85 nM | –
COc1cc2nccc(Oc3ccc(NC(=O)OCc4ccccc4)cc3)c2cc1OC [Example 231, Benzyl N-{4-[(6,7-dimethoxy-4-quinolyl)oxy]phenyl}carbamate] | – | – | 1 nM | 86 nM | –
COc1cc2nccc(Oc3ccc(NC(=O)OCCCOc4ccccc4OC)c(C)c3C)c2cc1OC [Example 158, 3-(2-Methoxyphenoxy)propyl N-{4-[(6,7-dimethoxy-4-quinolyl)oxy]-2,3-dimethylphenyl}carbamate] | – | – | 12 nM | 107 nM | –
COc1cc2nccc(Oc3cc(C)c(NC(=O)OCc4ccc(C)cc4)cc3C)c2cc1OC [Example 255, 4-Methylbenzyl N-{4-[(6,7-dimethoxy-4-quinolyl)oxy]-2,5-dimethylphenyl}carbamate] | – | – | > 100 nM | 309 nM | inhibition at 0.1 µM (PDGF-Ra; [3]): 36%
CCN(CC)CCCOC(=O)Nc1ccc(Oc2ccnc3cc(OC)c(OC)cc23)cc1 [Example 426, 3-(Diethylamino)propyl N-{4-[(6,7-dimethoxy-4-quinolyl)oxy]phenyl}carbamate] | 22 nM | 272 nM | – | – | –
COc1cc2nccc(Oc3cc(C)c(NC(=O)Oc4ccccc4C)cc3C)c2cc1OC [Example 289, 2-Methylphenyl N-{4-[(6,7-dimethoxy-4-quinolyl)oxy]-2,5-dimethylphenyl}carbamate] | – | – | < 10 nM | 328 nM | –

Structure (SMILES) | IC50 (PDGF-Ra) | IC50 (c-kit; 50 ng/ml h-SCF) | IC50 (PDGF-Ra; Pharmacological Test Example 1) | IC50 (c-kit; h-SCF 50 ng/ml) | also measured
COc1cc2nccc(Oc3cc(C)c(NC(=O)OCc4ccccc4C)cc3C)c2cc1OC [Example 245, 2-Methylbenzyl N-{4-[(6,7-dimethoxy-4-quinolyl)oxy]-2,5-dimethylphenyl}carbamate] | – | – | 16 nM | 408 nM | –
COc1cc2nccc(Oc3ccc(NC(=O)NCCN4CCOCC4)cc3)c2cc1OC [Example 628, N-{4-[(6,7-Dimethoxy-4-quinolyl)oxy]phenyl}-N′-(2-morpholinoethyl)urea] | < 10 nM | 81 nM | – | – | –
COc1cc2nccc(Oc3cc(C)c(NCCCOc4ccccc4C)cc3C)c2cc1OC [Example 889, N-{4-[(6,7-Dimethoxy-4-quinolyl)oxy]-2,5-dimethylphenyl}-N-[3-(2-methylphenoxy)propyl]amine] | > 100 nM | – | – | – | inhibition at 0.1 µM (PDGF-Ra; [3]): 30%; inhibition at 1 µM (c-kit; figure in parentheses in −( )): 28%
COc1cc2nccc(Oc3ccc(NC(=S)NC(=O)CCCc4ccccc4)cc3Cl)c2cc1OC [Example 726, N-{3-Chloro-4-[(6,7-dimethoxy-4-quinolyl)oxy]phenyl}-N′-(4-phenylbutanoyl)thiourea] | 37 nM | 624 nM | – | – | –
COc1cc2nccc(Oc3cc(C)c(NC(=O)OCC4CCCCCC4)cc3C)c2cc1OC [Example 349, Cycloheptylmethyl N-{4-[(6,7-dimethoxy-4-quinolyl)oxy]-2,5-dimethylphenyl}carbamate] | – | – | 12 nM | 309 nM | –
COc1cc2nccc(Oc3ccc(NC(=O)NC4CCN(Cc5ccccc5)C4)c(C)c3C)c2cc1OC (stereo not drawn) [Example 604, N-{4-[(6,7-Dimethoxy-4-quinolyl)oxy]-2,3-dimethylphenyl}-N′-[4-(N-benzyl)piperidinyl]urea] | 73 nM | 322 nM | – | – | –
COc1cc2nccc(Oc3ccc(NC(=S)NC(=O)C4CCCO4)cc3)c2cc1OC (stereo not drawn) [Example 765, N-{4-[(6,7-Dimethoxy-4-quinolyl)oxy]phenyl}-N′-tetrahydro-2-furanylcarbonylthiourea] | 21 nM | 937 nM | – | – | –
COc1ccc(C(C)OC(=O)Nc2ccc(Oc3ccnc4cc(OC)c(OC)cc34)c(C)c2C)cc1 (stereo not drawn) [Example 33, 1-(4-Methoxyphenyl)ethyl N-{4-[(6,7-dimethoxy-4-quinolyl)oxy]-2,3-dimethylphenyl}carbamate] | – | – | 23 nM | 362 nM | –
COc1cc2nccc(Oc3ccc(NC(=S)NC(=O)CCc4ccccc4C)cc3)c2cc1OC [Example 731, N-{4-[(6,7-Dimethoxy-4-quinolyl)oxy]phenyl}-N′-[3-(2-methylphenyl)propanoyl]thiourea] | 17 nM | 259 nM | – | – | –
COc1cc2nccc(Oc3ccc(NC(=O)OCc4cccnc4)c(C)c3C)c2cc1OC [Example 432, 3-Pyridylmethyl N-{4-[(6,7-dimethoxy-4-quinolyl)oxy]-2,3-dimethylphenyl}carbamate] | 13 nM | < 30 nM | – | – | –
COc1cc2nccc(Oc3ccc(NC(=O)OCCCOc4ccc(Cl)cc4)c(C)c3C)c2cc1OC [Example 28, 3-(4-Chlorophenoxy)propyl N-{4-[(6,7-dimethoxy-4-quinolyl)oxy]-2,3-dimethylphenyl}carbamate] | – | – | < 10 nM | 118 nM | –
COc1cc2nccc(Oc3cc(C)c(NC(=O)OCc4ccc(C(F)(F)F)cc4)cc3C)c2cc1OC [Example 23, 4-(Trifluoromethyl)benzyl N-{4-[(6,7-dimethoxy-4-quinolyl)oxy]-2,5-dimethylphenyl}carbamate] | – | – | < 10 nM | 475 nM | –
CCN(CC)CCNC(=O)Nc1ccc(Oc2ccnc3cc(OC)c(OC)cc23)cc1Cl [Example 650, N-{2-Chloro-4-[(6,7-dimethoxy-4-quinolyl)oxy]phenyl}-N′-[2-(diethylamino)ethyl]urea] | 32 nM | 420 nM | – | – | –
COc1cc2nccc(Oc3ccc(NC(=O)OCCSc4ccc(C)cc4)c(C)c3C)c2cc1OC [Example 138, 3-[(4-Methylphenyl)sulfanyl]ethyl N-{4-[(6,7-dimethoxy-4-quinolyl)oxy]-2,3-dimethylphenyl}carbamate] | – | – | 17 nM | 74 nM | –
COc1cc2ncnc(Oc3ccc(N)c(N4CCOCC4)c3)c2cc1OC [Example 1150] | 51 nM | – | – | – | IC50 (c-kit; h-SCF stimulation): 192 nM
COc1cc2nccc(Oc3cc(C)c(NC(=O)NCCN4CCCCC4)cc3C)c2cc1OC [Example 674, N-{4-[(6,7-Dimethoxy-4-quinolyl)oxy]-2,5-dimethylphenyl}-N′-(2-piperidinoethyl)urea] | > 100 nM | 854 nM | – | – | inhibition at 0.1 µM (PDGF-Ra; [1]): 43%
